Laboratory results from PubChem BioAssay (NCI).
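The concentration for 50% growth inhibition is given as GI50. At the TGI there is no net growth.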

Columns and labels:
Assay in all cases: inhibition of tumour cell growth, NCI panel, 384-well format
NCI-H522 lung = test system: NCI-H522 lung
HOP-62 NSCLC = test system: HOP-62 NSCLC
HT29 colon = test system: HT29 colon
TK-10 renal = test system: TK-10 renal
UACC-257 melanoma = test system: UACC-257 melanoma
RXF 393 renal = test system: RXF 393 renal
OVCAR-3 ovarian = test system: OVCAR-3 ovarian
HCT-116 colon = test system: HCT-116 colon
BT-549 breast = test system: BT-549 breast
MOLT-4 leukemia = test system: MOLT-4 leukemia
SN12C renal = test system: SN12C renal
SF-268 CNS = test system: SF-268 CNS
KM12 colon = test system: KM12 colon
SK-MEL-28 melanoma = test system: SK-MEL-28 melanoma
786-0 renal = test system: 786-0 renal
OVCAR-4 ovarian = test system: OVCAR-4 ovarian
NCI-H23 lung = test system: NCI-H23 lung
MALME-3M melanoma = test system: MALME-3M melanoma
UACC-62 melanoma = test system: UACC-62 melanoma
SW-620 colon = test system: SW-620 colon
HOP-92 NSCLC = test system: HOP-92 NSCLC
NCI-H226 lung = test system: NCI-H226 lung
EKVX NSCLC = test system: EKVX NSCLC
SF-539 CNS = test system: SF-539 CNS
A498 renal = test system: A498 renal
COLO 205 colon = test system: COLO 205 colon
MDA-MB-468 breast = test system: MDA-MB-468 breast
MDA-MB-231 breast = test system: MDA-MB-231 breast
M14 melanoma = test system: M14 melanoma
PC-3 prostate = test system: PC-3 prostate
IGROV1 ovarian = test system: IGROV1 ovarian
SK-MEL-2 melanoma = test system: SK-MEL-2 melanoma
K-562 leukemia = test system: K-562 leukemia
MDA-MB-435 melanoma = test system: MDA-MB-435 melanoma
CAKI-1 renal = test system: CAKI-1 renal
SNB-19 CNS = test system: SNB-19 CNS
NCI-H460 NSCLC = test system: NCI-H460 NSCLC
UO-31 renal = test system: UO-31 renal
DU-145 prostate = test system: DU-145 prostate
HL-60(TB) leukemia = test system: HL-60(TB) leukemia
SK-OV-3 ovarian = test system: SK-OV-3 ovarian

`COc1cc(N2CCC(N3CCN(C)CC3)CC2)ccc1Nc1ncc(Cl)c(Nc2ccccc2S(=O)(=O)C(C)C)n1` gave a GI50 (NCI-H522 lung) of 367 nM, a TGI (NCI-H522 lung) of 1490 nM and a GI50 (HOP-62 NSCLC) of 356 nM. It also gave a TGI (HOP-62 NSCLC) of 1350 nM, a GI50 (HT29 colon) of 48.6 nM and a TGI (HT29 colon) of 294 nM. For the same molecule, the GI50 (TK-10 renal) was 379 nM, the TGI (TK-10 renal) was 1510 nM and the GI50 (UACC-257 melanoma) was 571 nM. It also gave a TGI (UACC-257 melanoma) of 1950 nM, a GI50 (RXF 393 renal) of 294 nM and a TGI (RXF 393 renal) of 952 nM. It also gave a GI50 (OVCAR-3 ovarian) of 517 nM, a TGI (OVCAR-3 ovarian) of 1780 nM and a GI50 (HCT-116 colon) of 308 nM. It also gave a TGI (HCT-116 colon) of 1630 nM, a GI50 (BT-549 breast) of 418 nM and a TGI (BT-549 breast) of 1320 nM. It also gave a GI50 (MOLT-4 leukemia) of 202 nM, a TGI (MOLT-4 leukemia) of 687 nM and a GI50 (SN12C renal) of 385 nM. For the same molecule, the TGI (SN12C renal) was 1400 nM, the GI50 (SF-268 CNS) was 397 nM and the TGI (SF-268 CNS) was 1510 nM. The GI50 (KM12 colon) was 319 nM, the TGI (KM12 colon) was 1290 nM and the GI50 (SK-MEL-28 melanoma) was 17800 nM. For the same molecule, the TGI (SK-MEL-28 melanoma) was 32300 nM, the GI50 ([…]-0 renal) was 1010 nM and the TGI (786-0 renal) was 2170 nM. It also gave a GI50 (OVCAR-4 ovarian) of 417 nM, a TGI (OVCAR-4 ovarian) of 12200 nM and a GI50 (NCI-H23 lung) of 228 nM. It also gave a TGI (NCI-H23 lung) of 1390 nM, a GI50 (MALME-3M melanoma) of 494 nM and a TGI (MALME-3M melanoma) of 1840 nM. It also gave a GI50 (UACC-62 melanoma) of 388 nM, a TGI (UACC-62 melanoma) of 1690 nM and a GI50 (SW-620 colon) of 218 nM. For the same molecule, the TGI (SW-620 colon) was 1180 nM, the GI50 (HOP-92 NSCLC) was 318 nM and the TGI (HOP-92 NSCLC) was 1310 nM. The GI50 (NCI-H226 lung) was 118 nM, the TGI (NCI-H226 lung) was 648 nM and the GI50 (EKVX NSCLC) was 48.7 nM. The TGI (EKVX NSCLC) was 263 nM, the GI50 (SF-539 CNS) was 246 nM and the TGI (SF-539 CNS) was 673 nM. The GI50 (A498 renal) was 790 nM, the TGI (A498 renal) was 2790 nM and the GI50 (COLO 205 colon) was 51.8 nM. It also gave a TGI (COLO 205 colon) of 232 nM, a GI50 (MDA-MB-468 breast) of 133 nM and a TGI (MDA-MB-468 breast) of 315 nM. The GI50 (MDA-MB-231 breast) was 556 nM, the TGI (MDA-MB-231 breast) was 1890 nM and the GI50 (M14 melanoma) was 491 nM. It also gave a TGI (M14 melanoma) of 1860 nM, a GI50 (PC-3 prostate) of 1030 nM and a TGI (PC-3 prostate) of 2220 nM. The GI50 (IGROV1 ovarian) was 283 nM, the TGI (IGROV1 ovarian) was 1160 nM and the GI50 (SK-MEL-2 melanoma) was 383 nM. It also gave a TGI (SK-MEL-2 melanoma) of 1830 nM, a GI50 (K-562 leukemia) of 404 nM and a TGI (K-562 leukemia) of 1680 nM. It also gave a GI50 (MDA-MB-435 melanoma) of 447 nM, a TGI (MDA-MB-435 melanoma) of 1960 nM and a GI50 (CAKI-1 renal) of 490 nM. It also gave a TGI (CAKI-1 renal) of 1560 nM, a GI50 (SNB-19 CNS) of 1220 nM and a TGI (SNB-19 CNS) of 2520 nM. It also gave a GI50 (NCI-H460 NSCLC) of 131 nM, a TGI (NCI-H460 NSCLC) of 1070 nM and a GI50 (UO-31 renal) of 929 nM. It also gave a TGI (UO-31 renal) of 2140 nM, a GI50 (DU-145 prostate) of 300 nM and a TGI (DU-145 prostate) of 1630 nM. For the same molecule, the GI50 (HL-60(TB) leukemia) was 36.1 nM, the TGI (HL-60(TB) leukemia) was 187 nM and the GI50 (SK-OV-3 ovarian) was 1110 nM. It also gave a TGI (SK-OV-3 ovarian) of 2320 nM.
